Laboratory results reported in patent US20180256538A1, “METHOD FOR IMPROVING MITOPHAGY IN SUBJECTS” (Amazentis SA, priority 2017, published 2018).
Entries after “also recorded” stand apart in the source; their conditions may differ.

Experiments:
[1] = test system: plasma acylcarnitines and other metabolites; assay: Plasma metabolomics (LC/MS/MS), day 28 vs day -1; type: in vivo, human; conditions: 500 mg/day for 28 days
Method: Blood handling procedures: at each time point indicated in the table, a 6 mL blood sample was drawn into K2-EDTA coated tube. The blood samples were gently inverted a few times for complete mixing with the anticoagulant. The exact time of sample collection was recorded on the eCRF. Within 30 minutes following blood collection, each blood sample was centrifuged at 1500 g for 10 minutes at 4° C. 30 minutes after the centrifugation, the top layer of human plasma was transferred into 2 pre-labelled polypropylene tubes, containing approximately 1500 μL of plasma. Blood cells were not transferred. All sample tubes were clearly and appropriately labelled. Tubes were capped immediately from each time point and the plasma was be frozen in an upright position at approximately −80° C. for storage. Measurement of metabolites: Samples were extracted and split into equal parts for analysis on the LC/MS/MS and Polar LC platforms. Proprietary software was used to match ions to an in-house library of standards for metabolite identification and for metabolite quantitation by peak area integration. A total of 781 metabolites were quantified. Metabolomics is the study of known measurable metabolites in a sample. […] The technique made use of HPLC-MS-MS analysis of plasma samples of subjects administered either placebo or urolithin A to characterise metabolites. 781 plasma metabolites which cover all of the biochemical processes of the body were investigated. […] The grey line in FIG. 8 corresponds to a fold change of 1, i.e. absence of effect. *P<0.05 correspond to a significant effect from D-1 (pre-dose) to D28, calculated after a repeated measures ANOVA. N=9 per group. Values represent the arithmetic mean of the fold changes.

[2] = test system: mitochondrial gene sets in vastus lateralis muscle; assay: Microarray / Gene Set Enrichment Analysis of gene expression in skeletal muscle biopsies after 28 days dosing; type: in vivo, human; conditions: 500 mg/day for 28 days vs placebo group
Method: Muscle biopsies were collected before the meal from the vastus lateralis muscle of the right leg in order to perform ex vivo measurements.
Muscle biopsies were collected on Day −1 and Day 28 at pre-dose under fasted state using the Bergstrom biopsy needle technique. The minimal amount of each muscle tissue sample was approximately […]. One third of the tissue was used for gene expression (≈50 mg), and was further divided into two equal portions: one portion for RNA analysis (≈25 mg) and one portion for DNA analysis (≈25 mg), both in a Safe-lock Tubes 2.0 ml, Eppendorf (part no. 0030.120.094). Muscle tissue was snap frozen using liquid nitrogen immediately after collection and further, long term storage will be in a −80° C. freezer. The mRNA was analysed by qPCR. Quantification of mtDNA over nuclear DNA provided another measure of mitochondrial abundance. The shipment was done in dry ice by specialized carrier. Temperatures were monitored using data logger during all transport.
Gene expression on available remaining muscle tissues samples was performed by microarrays.
Microarray analysis was carried out on skeletal muscle biopsies of human subjects administered urolithin A or placebo daily for 28 days. Approximately 30,000 gene transcripts were quantified by microarray in muscle biopsies and compared (day 28 vs. day −1). Gene Set Enrichment Analysis was conducted on 6166 gene sets. […]

clinical [3] = conditions: human, in vivo, po
Method: Part B: The study was a double-blinded, randomized, multiple ascending dose study in 36 healthy elderly male and female volunteers. Each subject was randomised to receive study product or placebo for 28 days.
Part B: Repeated oral dose administration from day 1 to day 28 according to the randomization. The administration took place around 8:00 am with around 200 mL tap water, in a sitting position, and under fasting conditions.
After multiple dosing: Cmax, tmax, AUC0-24 h, t1/2 From the plasma concentration-time data, the following pharmacokinetic parameters will be determined, as data permit using non-compartmental methods: maximum observed plasma concentration (Cmax(ng/mL), time at which maximum observed plasma concentration (tmax) (h), area under the plasma concentration-time curve AUC(0-24 h) (ng/mL*h) and AUC0-∞) (ng/mL*h), and apparent terminal phase half-life (t1/2) (h).
(§1) Blood sampling was performed for urolithin A concentration measurements at the exact timepoints with an authorised time window described in the table below:
(§2) At each time point indicated in the table, a 6 mL blood sample was drawn into K2-EDTA coated tube. The blood samples were gently inverted a few times for complete mixing with the anticoagulant. The exact time of sample collection was recorded on the eCRF. Within 30 minutes following blood collection, each blood sample was centrifuged at 1500 g for 10 minutes at 4° C.
(§3) From the plasma concentration-time data, the following pharmacokinetic parameters were determined, as data permit using non-compartmental methods: maximum observed plasma concentration (Cmax), time at which maximum observed plasma concentration (tmax), area under the plasma concentration-time curve AUC(0-24 h) and AUC(0-∞), and apparent terminal phase half-life (t1/2).

clinical [4] = conditions: human, in vivo, po; for AUC(0-t) / Cmax: both sexes
Method: Part A: The study was a double-blind, randomized, single ascending doses, study in 24 healthy elderly male and female volunteers. Each subject was randomized for two subsequent doses in three cohorts.
Part A: Single oral dose administration on D1 of each period according to the randomisation. The administration took place around 8:00 am with around 200 mL tap water, in sitting position, and under fasting conditions.
After single dosing: Cmax, tmax, AUC0-t, AUC0-∞, t1/2
as §1, §2, §3
FIG. 1 summarises certain plasma pharmacokinetic parameters of urolithin A following single dose oral administration at 250 mg, 500 mg, and 2000 mg urolithin A dosages.

[5] = Steady state plasma levels of total Urolithin A (parent + glucuronide and sulfate) over 28 days of dosing; type: in vivo, human; conditions: 500 mg/day oral for 28 days, total Urolithin A in plasma
Method: A double-blind, randomized, placebo controlled clinical trial was conducted in healthy elderly to establish the steady state levels of Urolithin A in plasma. Elderly subjects (61-82 years) (n=9), participated in each group of dosing. The subjects met all the inclusion and exclusion criteria of the study and signed informed consent. The subjects were overnight fasted and the plasma was collected in the morning before breakfast to assess steady state levels. Subjects were given a dose of Urolithin or placebo each morning for the 28 day trial, The urolithin A was given as softgel capsules containing 250 mg of Urolithin A in each capsule. Plasma samples were collected for assessment of Urolithin A steady state concentrations in the 4-week Urolithin A study at the following time points (Day 0, Day 7, Day 14, Day 28, Day 29, Day 31, and Day 32) were measured On day 28 the subjects were admitted to a Phase I clinical trial unit and the kinetics of Urolithin A absorption, and elimination following multiple 4-week dosing were followed until 96 hours following the last dosing on Day 28. Plasma was collected at the following time-points post last dosing with Urolithin A on Day 28: pre-dose, 1 hr, 2 hr, 4 hr, 6 hr, 8 hr, 12 hr, 24 hr, 72 hr and 96 hr. […] The exact time of sample collection was recorded on the eCRF (electronic case report from). […]

[6] = test system: myostatin/follistatin ratio; assay: ELISA of plasma muscle function markers, day 28 vs day -1; type: in vivo, human; conditions: 500 mg/day for 28 days, day 28 vs day -1, compared with placebo
Method: Blood handling procedures: at each time point indicated in the table, a 6 mL blood sample was drawn into K2-EDTA coated tube. The blood samples were gently inverted a few times for complete mixing with the anticoagulant. The exact time of sample collection was recorded on the eCRF. Within 30 minutes following blood collection, each blood sample was centrifuged at 1500 g for 10 minutes at 4° C. 30 minutes after the centrifugation, the top layer of human plasma was transferred into 2 pre-labelled polypropylene tubes, containing approximately 1500 μL of plasma. Blood cells were not transferred. All sample tubes were clearly and appropriately labelled. Tubes were capped immediately from each time point and the plasma was be frozen in an upright position at approximately −80° C. for storage. Measurement of markers of muscle function: Markers of muscle function, including myostatin and follistatin, were measured using an ELISA based method. Every sample was analysed in technical duplicates together with a standard curve made with each isolated analyte. The amount of each marker was expressed as an absolute concentration in plasma (pg to μg/ml of plasma, depending on the analyte). Analysis of the levels of muscle biomarkers myostatin and follistatin, which are found in plasma of human subjects, was carried out using ELISA.

In the case of `O=c1oc2cc(O)ccc2c2ccc(O)cc12` [Urolithin A], the plasma carnitine levels [1] is reported as “did not change”, the “change in plasma acylcarnitines, short chain up to long chain (fold change)” value ([1]; day -1 to day 28, N=9) is reported as “overall decrease; also recorded: significant impact” and the “change in plasma pyruvate, lactate, acetoacetate, 3-hydroxyoctanoate and glucose (fold change)” value ([1]; day -1 to day 28, N=9) is reported as “no significant change”. For the same compound, the “enrichment in GO_MITOCHONDRION genes expression” value [2] was “significant”, the AUC (clinical [3]; both sexes, 500 mg) was 10.7 ng·h/mL and the Cmax (clinical [3]; both sexes, 500 mg) was 1.25 ng/mL. For the same compound, the “pharmacokinetic profile over the 28 day period (plasma concentrations 24 h after previous dose, days 7, 14, 28, 29)” value (clinical [3]) was “stable”, the AUC(0-t) (clinical [4]; 500 mg) was 13.3 ng·h/mL and the Cmax (clinical [4]; 500 mg) was 1.24 ng/mL. The AUC(0-t) (clinical [4]; 2000 mg) was 12.4 ng·h/mL, the Cmax (clinical [4]; 2000 mg) was 1.04 ng/mL and the “dose-normalised plasma Cmax and AUC0-36 h (plasma levels per mg dosed)” value (clinical [4]) was “higher plasma levels of urolithin A were observed per mg dosed”. The “steady state levels after end of the 4-week administration (Day 31 and Day 32)” value [5] was “gradually declined” and the “change in plasma myostatin/follistatin ratio” value [6] was “significantly lower; also recorded: significant decrease”.
